Reference: patent US9650339B2, “Inhibitors of histone demethylases” (Gilead Sciences, Inc., priority 2013, dated 2017)

Legend:
KDM2B (FBXL10) = target: T1, KDM2B (FBXL10) (Homo sapiens, UniProt Q8NHM5); assay: Histone lysine demethylase AlphaLISA assay, KDM2B; type: biochemical; settings: read-out: KDM2B HDME Inhibition IC50
T1 sequence (Q8NHM5 1-650): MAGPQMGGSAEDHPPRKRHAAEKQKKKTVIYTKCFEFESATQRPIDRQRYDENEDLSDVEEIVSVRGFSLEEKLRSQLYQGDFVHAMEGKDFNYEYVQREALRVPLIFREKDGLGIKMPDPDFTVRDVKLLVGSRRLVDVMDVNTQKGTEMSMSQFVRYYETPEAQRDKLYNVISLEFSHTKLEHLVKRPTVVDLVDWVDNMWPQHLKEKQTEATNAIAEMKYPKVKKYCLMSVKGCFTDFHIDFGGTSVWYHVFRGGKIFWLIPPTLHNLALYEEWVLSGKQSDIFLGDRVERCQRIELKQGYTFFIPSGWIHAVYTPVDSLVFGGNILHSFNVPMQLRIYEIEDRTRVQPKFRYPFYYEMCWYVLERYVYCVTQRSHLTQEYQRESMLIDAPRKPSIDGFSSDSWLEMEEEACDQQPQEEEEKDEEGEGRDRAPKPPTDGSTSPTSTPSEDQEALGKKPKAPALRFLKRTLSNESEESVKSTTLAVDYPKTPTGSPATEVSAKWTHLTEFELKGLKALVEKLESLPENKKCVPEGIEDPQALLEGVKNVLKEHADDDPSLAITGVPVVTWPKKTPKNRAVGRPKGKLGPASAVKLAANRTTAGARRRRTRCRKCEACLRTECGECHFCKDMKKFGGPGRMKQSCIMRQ
In short: (§1)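 Enzyme 10 min pre-incubation; + compound (3% DMSO soln) 10 min; + biotin-H3 methyl-Lys peptide, 25 μM L-Asc, 10 μM α-KG, RT. Read: AlphaLISA acceptor beads, then streptavidin donor beads, RT, dark.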

KDM5B (PLU-1) = target: T2, KDM5B (PLU-1) (Homo sapiens, UniProt Q9UGL1); assay: Histone lysine demethylase AlphaLISA assay, KDM5B; type: biochemical; settings: read-out: KDM5B HDME Inhibition IC50
T2 sequence (Q9UGL1 1-809): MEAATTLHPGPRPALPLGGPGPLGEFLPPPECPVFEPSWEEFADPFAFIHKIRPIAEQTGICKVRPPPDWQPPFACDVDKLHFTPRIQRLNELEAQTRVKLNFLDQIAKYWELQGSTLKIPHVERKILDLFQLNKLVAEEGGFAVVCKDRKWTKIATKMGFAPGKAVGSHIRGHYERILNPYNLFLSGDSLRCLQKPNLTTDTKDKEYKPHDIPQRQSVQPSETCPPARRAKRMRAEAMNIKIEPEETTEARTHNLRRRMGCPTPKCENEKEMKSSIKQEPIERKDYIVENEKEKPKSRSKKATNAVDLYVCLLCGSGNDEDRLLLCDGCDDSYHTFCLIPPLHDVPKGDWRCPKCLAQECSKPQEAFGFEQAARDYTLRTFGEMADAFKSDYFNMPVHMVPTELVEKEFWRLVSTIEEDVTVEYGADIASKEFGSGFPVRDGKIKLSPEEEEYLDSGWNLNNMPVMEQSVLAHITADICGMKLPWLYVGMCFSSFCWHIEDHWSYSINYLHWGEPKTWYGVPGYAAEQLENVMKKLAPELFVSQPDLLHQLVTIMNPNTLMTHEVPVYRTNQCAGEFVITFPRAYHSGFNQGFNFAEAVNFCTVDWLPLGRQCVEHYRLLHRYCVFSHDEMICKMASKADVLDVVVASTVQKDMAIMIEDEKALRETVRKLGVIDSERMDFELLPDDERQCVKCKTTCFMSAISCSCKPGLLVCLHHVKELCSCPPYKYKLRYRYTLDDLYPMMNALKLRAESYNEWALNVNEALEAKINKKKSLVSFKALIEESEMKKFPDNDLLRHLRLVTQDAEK
In short: as §1

KDM4B (JMJD2B) = target: T3, KDM4B (JMJD2B) (Homo sapiens, UniProt O94953); assay: Histone lysine demethylase AlphaLISA assay, KDM4B; type: biochemical; settings: read-out: KDM4B HDME Inhibition IC50
T3 construct: 2-500; purchased BPS; host or cells: Bac (baculovirus system)
T3 sequence (O94953 2-500): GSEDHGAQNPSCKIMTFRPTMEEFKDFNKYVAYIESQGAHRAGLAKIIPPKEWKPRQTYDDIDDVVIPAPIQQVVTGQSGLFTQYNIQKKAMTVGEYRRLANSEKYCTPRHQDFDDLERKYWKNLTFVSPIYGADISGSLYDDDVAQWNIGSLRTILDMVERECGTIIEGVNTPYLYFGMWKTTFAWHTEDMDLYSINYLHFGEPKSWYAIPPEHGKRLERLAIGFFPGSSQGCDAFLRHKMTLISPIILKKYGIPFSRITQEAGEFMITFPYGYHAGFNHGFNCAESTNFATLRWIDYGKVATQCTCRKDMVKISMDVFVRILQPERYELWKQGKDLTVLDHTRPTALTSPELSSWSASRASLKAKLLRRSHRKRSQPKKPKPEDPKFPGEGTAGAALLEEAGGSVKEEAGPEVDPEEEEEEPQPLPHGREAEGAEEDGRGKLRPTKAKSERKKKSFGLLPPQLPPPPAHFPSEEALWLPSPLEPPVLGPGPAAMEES
Description: Assays are performed analogously to the protocol described by PerkinElmer (Roy et al. PerkinElmer Technical Note: AlphaLISA #12, April 2011)
Enzymes are dissolved in enzyme buffer and incubated for 10 min before being added to 3% DMSO solutions of compounds in enzyme buffer. Incubated for another 10 minutes, before substrate solution is added and the reaction mixture is incubated at room temperature. 10 μL acceptor beads, suspended in Epigenetic Buffer (Perkin Elmer AL008) from stock, are added and the suspension is incubated in the dark at room temperature, before a suspension of streptavidin donor beads (Perkin Elmer 6760002) in Epigenetic Buffer is added. After incubation at room temperature in the dark the plates are read.
BK9M3: Biotin-ARTKQTAR(KMe3)STGGKAPRKQ-NH2 (Caslo, Denmark) […]
Substrate Solution: Substrate, 25 μM L-Asc, and 10 μM α-KG in Buffer A.

MCF7 cells = assay: Cell proliferation assay MCF7; type: cell-based; settings: MCF7 human breast cancer cells; 120 hours; ATPlite 1 Step
In short: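 After 120 h of compound exposure (duplicates, DMSO at most 0.5%) in DMEM GlutaMAX with 10% FBS, ATPlite 1 Step luminescence measured cellular ATP. Compound was added 24 h after seeding, at a density chosen for ~90% confluence at the end.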

Row | IC50 (KDM2B (FBXL10)) [µM] | IC50 (KDM5B (PLU-1)) [µM] | IC50 (KDM4B (JMJD2B)) [µM] | EC50 (MCF7 cells) [µM] | Structure (SMILES)
1 | > 2.5 | > 2.5 | > 2.5 | – | CN(C)CCCCNCc1cc(CNC2CC2)ccn1 [Compound 10, N-{[2-({[4-(dimethylamino)butyl]-amino}methyl)pyridin-4-yl]methyl}-cyclopropanamine]
2 | > 2.5 | 0.25 to 2.5 | > 2.5 | – | CC1CCCCN1CCCNCc1cc(CNC2CC2)ccn1 (stereo not shown) [Compound 11, N-{[2-({[3-(2-methylpiperidin-1-yl)propyl]amino}methyl)-pyridin-4-yl]methyl}-cyclopropanamine]
3 | > 2.5 | 0.25 to 2.5 | < 0.25 | – | CCCNCc1cc(CNC2CC2)ccn1 [Compound 12, N-({2-[(propylamino)methyl]-pyridin-4-yl}methyl)-cyclopropanamine]
4 | > 2.5 | 0.25 to 2.5 | > 2.5 | – | CN(C)C(=O)CNCc1cc(CNCC#N)ccn1 [Compound 13, 2-{[(4-{[(cyanomethyl)amino]-methyl}pyridin-2-yl)methyl]amino}-N,N-dimethylacetamide]
5 | > 2.5 | 0.25 to 2.5 | 0.25 to 2.5 | – | CN(C)C(=O)CNCc1cc(CNCCF)ccn1 [Compound 14, 2-{[(4-{[(2-fluoroethyl)amino]-methyl}pyridin-2-yl)methyl]amino}-N,N-dimethylacetamide]
6 | > 2.5 | < 0.25 | 0.25 to 2.5 | – | CN(C)CCNCc1ccnc(CNCC(=O)N(C)C)c1 [Compound 15, 2-({[4-({[2-(dimethylamino)ethyl]-amino}methyl)pyridin-2-yl]methyl}amino)-N,N-dimethylacetamide]
7 | > 2.5 | < 0.25 | – | < 0.25 | CCN(CCN(C)C)C(=O)CNCc1cc(C2OCC(Cc3ccccc3)CN2C(=O)C(F)(F)F)ccn1 (stereo not shown) [Compound 90, 2-[({4-[5-benzyl-3-(trifluoroacetyl)-1,3-oxazinan-2-yl]pyridin-2-yl}methyl)amino]-N-[2-(dimethylamino)-ethyl]-N-ethylacetamide]
8 | > 2.5 | < 0.25 | – | < 0.25 | CCN(CCN(C)C)C(=O)CNCc1cc(C2OCC3(CC3)CN2C(=O)C(F)(F)F)ccn1 (stereo not shown) [Compound 91, N-[2--(dimethylamino)-ethyl]-N-ethyl-2-[({4-[7-(trifluoroacetyl)-5-oxa-7-azaspiro[2.5]-octan-6-yl]pyridin-2-yl}methyl)amino]-acetamide]
9 | > 2.5 | 0.25 to 2.5 | – | > 2.5 | CN(Cc1ccccc1F)C(=O)CNCc1cc(/C=N/CCO)ccn1 [Compound 92, N-[(2-fluorophenyl)methyl]-2-[({4-[[(2-hydroxyethyl)imino]-methyl]pyridin-2-yl}methyl)amino]-N-methylacetamide]
10 | > 2.5 | > 2.5 | – | > 2.5 | OCC/N=C/c1ccnc(CNCCc2ccccc2OCc2ccccc2)c1 [Compound 93, 2-[({2-[({2-[2-(benzyloxy)phenyl]-ethyl}amino)methyl]-pyridin-4-yl}methylidene)-amino]ethan-1-ol]
11 | 0.25 to 2.5 | < 0.25 | – | > 2.5 | CCN(CCC#N)C(=O)CNCc1cc(/C=N/CCO)ccn1 [Compound 94, N-(2-cyanoethyl)-N-ethyl-2-[({4-[[(2-hydroxyethyl)imino]-methyl]pyridin-2-yl}methyl)amino]-acetamide]
12 | > 2.5 | > 2.5 | – | > 2.5 | CC(C)C[C@H](NCc1cc(/C=N/CCO)ccn1)C(=O)N1CCCCC1 [Compound 95, (2S)-2-[({4-[[(2-hydroxyethyl)imino]-methyl]pyridin-2-yl}methyl)amino]-4-methyl-1-(piperidin-1-yl)pentan-1-one]
13 | > 2.5 | 0.25 to 2.5 | – | 0.25 to 2.5 | CN(C)CC1CCC(CNCc2cc(C=O)ccn2)CC1 (stereo not shown) [Compound 97, 2-{[({4-[(dimethylamino)-methyl]cyclohexyl}-methyl)amino]-methyl}pyridine-4-carbaldehyde]
14 | > 2.5 | < 0.25 | – | > 2.5 | CN(C)C/C=C\CNCc1cc(C=O)ccn1 [Compound 99, 2-({[(2Z)-4-(dimethylamino)-but-2-en-1-yl]amino}methyl)-pyridine-4-carbaldehyde]
15 | > 2.5 | < 0.25 | – | < 0.25 | CN1CCC(CNCc2cc(C=O)ccn2)CC1 [Compound 100, 2-({[(1-methyl-piperidin-4-yl)methyl]amino}-methyl)pyridine-4-carbaldehyde]
16 | > 2.5 | 0.25 to 2.5 | – | – | CN(C)CCCCNCc1cc(C=O)ccn1 [Compound 108, 2-({[4-(dimethylamino)-butyl]amino}methyl)-pyridine-4-carbaldehyde]
17 | > 2.5 | 0.25 to 2.5 | – | – | CN(C)CCNCc1cc(C=O)ccn1 [Compound 110, 2-({[2-(dimethylamino)-ethyl]amino}methyl)-pyridine-4-carbaldehyde]
18 | > 2.5 | – | – | – | CCN(CC)CCCCNC(=O)CNCc1cc(C=O)ccn1 [Compound 112, N-[4-(diethylamino)-butyl]-2-{[(4-formylpyridin-2-yl)methyl]amino}-acetamide]
19 | > 2.5 | > 2.5 | – | < 0.25 | CCN(CC)CCCCN(Cc1cc(C=O)ccn1)C(=O)C(F)(F)F [Compound 115, N-[4-(diethylamino)butyl]-2,2,2-trifluoro-N-[(4-formylpyridin-2-yl)methyl]acetamide]
20 | > 2.5 | < 0.25 | – | < 0.25 | CCN(CC(C)(C)N(C)C)C(=O)CNCc1cc(C=O)ccn1 [Compound 118, N-[2-(dimethylamino)-2-methylpropyl]-N-ethyl-2-{[(4-formylpyridin-2-yl)methyl]amino}-acetamide]
21 | > 2.5 | > 2.5 | – | – | CN(CC(=O)N1CCCCC1)Cc1cc(C=O)ccn1 [Compound 120, 2-({methyl[2-oxo-2-(piperidin-1-yl)ethyl]amino}-methyl)pyridine-4-carbaldehyde]
